# Values quoted from earlier work as cited in patent US20110313054A1, “BRANCHED COPOLYMERS, COMPOSITION AND USES” (Unilever PLC, priority 2009, published 2011).
# Details: in water at 20° C.
smiles,measurement,value
C=CC(=O)OCCO [2-Hydroxyethyl acrylate],Solubility in water w/w at 20° C.,soluble
C=C(C)C(=O)OCCO [2-Hydroxyethyl methacrylate],Solubility in water w/w at 20° C.,3.00 w/w
C=CC(=O)OCC(C)O (centres unmarked) [2-Hydroxypropyl acrylate],Solubility in water w/w at 20° C.,Soluble
C=C(C)C(=O)OCC(C)O (centres unmarked) [2-Hydroxypropyl methacrylate],Solubility in water w/w at 20° C.,2.17 w/w
C=C(C)C(=O)O [Methacrylic acid],Solubility in water w/w at 20° C.,Soluble
